According to PubChem BioAssay AID248 (DTP/NCI, 2004):
“And” between values parts separate entries of the source, which are not always exact repeats. Equal entries are not always repeated. Toxic doses and inconclusive results are not listed.

Tested on: L1210 leukemia ip in BDF1 mice, survival T/C
Test: NCI In Vivo Anticancer Drug Screen. Data for tumor model L1210 Leukemia (intraperitoneal) in B6D2F1 (BDF1) mice
Conditions: endpoint: mean survival time, higher = longer survival
In short: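 Read-out is survival time, reported as the treated-group measurement over the vehicle-control measurement.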

[1] = dose: 100.0 mg/kg/injection, schedule: Q01DX009 (ip), vehicle: saline with Tween-80
[2] = dose: 200.0 mg/kg/injection, schedule: Q01DX009 (ip), vehicle: saline with Tween-80
[3] = dose: 100.0 mg/kg/injection, schedule: Q01DX009 (ip), vehicle: saline
[4] = dose: 100.0 mg/kg/injection, schedule: Q01DX009 (ip), vehicle: Klucel (hydroxypropylcellulose) (HPC)
[5] = dose: 100.0 mg/kg/injection, schedule: Q04DX003 (ip), vehicle: Klucel (hydroxypropylcellulose) (HPC)
[6] = dose: 200.0 mg/kg/injection, schedule: Q01DX009 (ip), vehicle: Klucel (hydroxypropylcellulose) (HPC)
[7] = dose: 200.0 mg/kg/injection, schedule: Q04DX003 (ip), vehicle: Klucel (hydroxypropylcellulose) (HPC)
[8] = dose: 400.0 mg/kg/injection, schedule: Q01DX009 (ip), vehicle: Klucel (hydroxypropylcellulose) (HPC)
[9] = dose: 400.0 mg/kg/injection, schedule: Q04DX003 (ip), vehicle: Klucel (hydroxypropylcellulose) (HPC)
[10] = dose: 50.0 mg/kg/injection, schedule: Q01DX009 (ip), vehicle: saline
[11] = dose: 100.0 mg/kg/injection, schedule: Q04DX002 (ip), vehicle: saline
[12] = dose: 200.0 mg/kg/injection, schedule: Q04DX002 (ip), vehicle: saline
[13] = dose: 400.0 mg/kg/injection, schedule: Q04DX002 (ip), vehicle: saline
[14] = dose: 100.0 mg/kg/injection, schedule: Q01DX001 (ip), vehicle: saline
[15] = dose: 200.0 mg/kg/injection, schedule: Q01DX001 (ip), vehicle: saline

SMILES: C=C[Si](C)(C=C)C=C
- T/C (dose: 100.0 mg/kg/injection, schedule: Q01DX005 (ip), vehicle: saline): 94 % of control
- T/C (dose: 200.0 mg/kg/injection, schedule: Q01DX005 (ip), vehicle: saline): 97 % of control
- T/C (dose: 400.0 mg/kg/injection, schedule: Q01DX005 (ip), vehicle: saline): 94 % of control

SMILES: CCCOP(=S)(NCCOC)OCCC
- T/C [1]: 97 % of control
- T/C [2]: 100 % of control
- T/C (dose: 400.0 mg/kg/injection, schedule: Q01DX009 (ip), vehicle: saline with Tween-80): 89 % of control

SMILES: CNc1nc(SC)ncc1C
- T/C (dose: 25.0 mg/kg/injection, schedule: Q01DX Z (ip), vehicle: methylcellulose (MC)): 92 % of control
- T/C (dose: 50.0 mg/kg/injection, schedule: Q01DX Z (ip), vehicle: methylcellulose (MC)): 89 % of control

SMILES: CC(=C/C(C)(C)C)/C(C)=C/C(C)(C)C
- T/C [3]: 88 % of control

SMILES: Clc1ccc(Cl)nc1
- T/C [4]: 103 % of control
- T/C [5]: 98 % of control
- T/C [6]: 93 % of control
- T/C [7]: 98 % of control
- T/C [8]: 103 % of control
- T/C [9]: 88 % of control

SMILES: Cc1cc2oc(/C=N/N3CCOCC3)c(C)c2cc1C
- T/C [4]: 96 % of control
- T/C [5]: 90 % of control
- T/C [6]: 103 % of control
- T/C [7]: 102 % of control
- T/C [8]: 99 % of control
- T/C [9]: 98 % of control

SMILES: Nc1ccc([As](=O)(O)O)cc1
- T/C (dose: 25.0 mg/kg/injection, schedule: Q01DX009 (ip), vehicle: saline): 102 % of control
- T/C [10]: 102 % of control
- T/C [3]: 94 % of control and 104 % of control
- T/C [11]: 91 % of control
- T/C [12]: 102 % of control
- T/C [13]: 87 % of control

SMILES: CS(=O)(=O)OC12CC3CC(CC(C3)C1)C2
- T/C [10]: 96 % of control
- T/C [14]: 90 % of control
- T/C [3]: 96 % of control
- T/C [15]: 98 % of control
- T/C (dose: 200.0 mg/kg/injection, schedule: Q01DX009 (ip), vehicle: saline): 94 % of control

SMILES: COC(=O)C1c2ccccc2-c2ccccc21
- T/C (dose: 50.0 mg/kg/injection, schedule: Q01DX009 (ip), vehicle: saline with Tween-80): 97 % of control
- T/C [1]: 107 % of control
- T/C [2]: 96 % of control

SMILES: Cc1ccc(NC(=O)NCCCOc2ccc(N3C(N)=NC(N)=NC3(C)C)cc2Cl)cc1S(=O)(=O)F
- T/C (dose: 50.0 mg/kg/injection, schedule: Q01DX001 (ip), vehicle: saline): 93 % of control
- T/C [14]: 98 % of control
- T/C [15]: 97 % of control

SMILES: CN1CCCC(CC2c3ccccc3Sc3ccccc32)C1 (stereo unspecified)
- T/C (dose: 2.0 mg/kg/injection, schedule: Q01DX015 (ip), vehicle: carboxymethylcellulose (CMC)): 108 % of control
- T/C (dose: 4.0 mg/kg/injection, schedule: Q01DX015 (ip), vehicle: carboxymethylcellulose (CMC)): 98 % of control
- T/C (dose: 8.0 mg/kg/injection, schedule: Q01DX015 (ip), vehicle: carboxymethylcellulose (CMC)): 97 % of control
- T/C (dose: 16.0 mg/kg/injection, schedule: Q01DX015 (ip), vehicle: carboxymethylcellulose (CMC)): 91 % of control
- T/C (dose: 32.0 mg/kg/injection, schedule: Q01DX015 (ip), vehicle: carboxymethylcellulose (CMC)): 92 % of control

SMILES: NCCSCCc1ccccc1
- T/C (dose: 25.0 mg/kg/injection, schedule: Q04DX002 (ip), vehicle: saline with Tween-80): 100 % of control
- T/C (dose: 50.0 mg/kg/injection, schedule: Q04DX002 (ip), vehicle: saline with Tween-80): 103 % of control

SMILES: CC(CCc1ccccc1)N(C)C(=O)CNC(=O)CN1C(=O)c2ccccc2C1=O (stereo unspecified)
- T/C [14]: 96 % of control
- T/C [15]: 92 % of control

SMILES: CN1CCN(C(=O)C2CCCCC2C(=O)O)CC1 (stereo unspecified)
- T/C [11]: 107 % of control
- T/C [12]: 107 % of control
- T/C [13]: 96 % of control

SMILES: CNC(=O)O/N=C(\C(=N\OC(=O)NC)c1ccccc1)c1ccccc1
- T/C (dose: 100.0 mg/kg/injection, schedule: Q01DX001 (ip), vehicle: carboxymethylcellulose (CMC)): 96 % of control
- T/C (dose: 200.0 mg/kg/injection, schedule: Q01DX001 (ip), vehicle: carboxymethylcellulose (CMC)): 96 % of control
- T/C (dose: 400.0 mg/kg/injection, schedule: Q01DX001 (ip), vehicle: carboxymethylcellulose (CMC)): 96 % of control

SMILES: CC1CC(=O)N(Cl)C(=O)N1Cl (stereo unspecified)
- T/C (dose: 75.0 mg/kg/injection, schedule: Q01DX001 (ip), vehicle: saline): 102 % of control
- T/C (dose: 150.0 mg/kg/injection, schedule: Q01DX001 (ip), vehicle: saline): 106 % of control

SMILES: Cc1ccc(-c2nn[nH]n2)cc1
- T/C (dose: 100.0 mg/kg/injection, schedule: Q04DX003 (ip), vehicle: saline): 97 % of control
- T/C (dose: 200.0 mg/kg/injection, schedule: Q04DX003 (ip), vehicle: saline): 96 % of control
- T/C (dose: 400.0 mg/kg/injection, schedule: Q04DX003 (ip), vehicle: saline): 96 % of control

SMILES: CN(Cc1cnc2nc(N)nc(N)c2n1)c1ccc(C(=O)NC(CCC(=O)O)C(=O)O)cc1[N+](=O)[O-] (stereo unspecified)
- T/C (dose: 2.5 mg/kg/injection, schedule: Q01DX009 (ip), vehicle: sodium bicarbonate): 155 % of control
- T/C (dose: 5.0 mg/kg/injection, schedule: Q01DX009 (ip), vehicle: sodium bicarbonate): 112 % of control
- T/C (dose: 10.0 mg/kg/injection, schedule: Q01DX009 (ip), vehicle: sodium bicarbonate): 90 % of control

SMILES: CCOc1ccc(CO)cc1
- T/C (dose: 100.0 mg/kg/injection, schedule: Q04DX003 (ip), vehicle: saline with Tween-80): 97 % of control
- T/C (dose: 200.0 mg/kg/injection, schedule: Q04DX003 (ip), vehicle: saline with Tween-80): 100 % of control
- T/C (dose: 400.0 mg/kg/injection, schedule: Q04DX003 (ip), vehicle: saline with Tween-80): 89 % of control

SMILES: Cc1ccccc1SC(=O)Nc1ccc([N+](=O)[O-])cc1Cl
- T/C [4]: 96 % of control
- T/C [6]: 94 % of control
- T/C [8]: 94 % of control

SMILES: O=C(Nc1cccc(C2=NCCCN2)c1)Nc1cc(C(=O)Nc2ccc(C3=NCCCN3)cc2)ccc1C(=O)Nc1ccc(C2=NCCCN2)cc1
- T/C (dose: 0.47 mg/kg/injection, schedule: Q01DX Z (ip), vehicle: saline): 103 % of control
- T/C (dose: 0.94 mg/kg/injection, schedule: Q01DX Z (ip), vehicle: saline): 95 % of control
- T/C (dose: 1.88 mg/kg/injection, schedule: Q01DX Z (ip), vehicle: saline): 104 % of control
- T/C (dose: 3.75 mg/kg/injection, schedule: Q01DX Z (ip), vehicle: saline): 117 % of control and 265 % of control
- T/C (dose: 7.5 mg/kg/injection, schedule: Q01DX Z (oral), vehicle: saline): 98 % of control
- T/C (dose: 15.0 mg/kg/injection, schedule: Q01DX Z (ip), vehicle: saline): 96 % of control
- T/C (dose: 15.0 mg/kg/injection, schedule: Q01DX Z (oral), vehicle: saline): 104 % of control
- T/C (dose: 30.0 mg/kg/injection, schedule: Q01DX Z (oral), vehicle: saline): 104 % of control
- T/C (dose: 60.0 mg/kg/injection, schedule: Q01DX Z (oral), vehicle: saline): 104 % of control

SMILES: CN(C)C(=S)S/C=C\C(=O)O
- T/C (dose: 25.0 mg/kg/injection, schedule: Q04DX002 (ip), vehicle: Klucel (hydroxypropylcellulose) (HPC)): 90 % of control
- T/C (dose: 50.0 mg/kg/injection, schedule: Q04DX002 (ip), vehicle: Klucel (hydroxypropylcellulose) (HPC)): 90 % of control
- T/C [4]: 112 % of control
- T/C (dose: 100.0 mg/kg/injection, schedule: Q04DX002 (ip), vehicle: Klucel (hydroxypropylcellulose) (HPC)): 94 % of control
- T/C [6]: 89 % of control
- T/C (dose: 200.0 mg/kg/injection, schedule: Q04DX002 (ip), vehicle: Klucel (hydroxypropylcellulose) (HPC)): 93 % of control and 97 % of control
- T/C [8]: 99 % of control
- T/C (dose: 400.0 mg/kg/injection, schedule: Q04DX002 (ip), vehicle: Klucel (hydroxypropylcellulose) (HPC)): 109 % of control

SMILES: Nc1nc2c(=O)[nH]cnc2n1C1OC(CO)C(O)C1O (stereo unspecified)
- T/C (dose: 5.0 mg/kg/injection, schedule: Q01DX001 (ip), vehicle: saline): 102 % of control
- T/C (dose: 10.0 mg/kg/injection, schedule: Q01DX001 (ip), vehicle: saline): 104 % of control
- T/C (dose: 20.0 mg/kg/injection, schedule: Q01DX001 (ip), vehicle: saline): 102 % of control

SMILES: COc1ccc2c(ccc3nc(CCC(=O)O)n(C)c(=O)c32)c1
- T/C (dose: 50.0 mg/kg/injection, schedule: Q01DX009 (ip), vehicle: Klucel (hydroxypropylcellulose) (HPC)): 96 % of control
- T/C [4]: 96 % of control
- T/C [6]: 108 % of control

SMILES: O=C(Nc1ccccc1Cl)Oc1ccccc1Cc1ccccc1
- T/C [4]: 96 % of control
- T/C [5]: 107 % of control
- T/C [6]: 93 % of control
- T/C [7]: 90 % of control
- T/C [8]: 115 % of control
- T/C [9]: 93 % of control
